Publication PMC10819888, “Benzimidazole-Based Derivatives as Apoptotic Antiproliferative Agents: Design, Synthesis, Docking, and Mechanistic Studies” (Molecules, 2024)
Read-outs that look alike come from different tables or passages of the source.

Tests used:
BT-549 = assay: NCI-60 one-dose assay; format: cell-based; details: Homo sapiens, BT-549 (Breast Cancer), read-out: Cell Inhibition Percent
CAKI-1 = assay: NCI-60 one-dose assay; format: cell-based; details: Homo sapiens, CAKI-1 (Renal Cancer), read-out: Cell Inhibition Percent
COLO 205 = assay: NCI-60 one-dose assay; format: cell-based; details: Homo sapiens, COLO 205 (Colon Cancer), read-out: Cell Inhibition Percent
DU-145 = assay: NCI-60 one-dose assay; format: cell-based; details: Homo sapiens, DU-145 (Prostate Cancer), read-out: Cell Inhibition Percent
EKVX = assay: NCI-60 one-dose assay; format: cell-based; details: Homo sapiens, EKVX (Non-Small Cell Lung Cancer), read-out: Cell Inhibition Percent
HOP-92 = assay: NCI-60 one-dose assay; format: cell-based; details: Homo sapiens, HOP-92 (Non-Small Cell Lung Cancer), read-out: Cell Inhibition Percent
IGROV1 = assay: NCI-60 one-dose assay; format: cell-based; details: Homo sapiens, IGROV-1, IGROV1 (ovarian cancer), read-out: Cell Inhibition Percent
KM12 = assay: NCI-60 one-dose assay; format: cell-based; details: Homo sapiens, KM12 (Colon Cancer), read-out: Cell Inhibition Percent
LOX IMVI = assay: NCI-60 one-dose assay; format: cell-based; details: Homo sapiens, LOX IMVI (Melanoma), read-out: Cell Inhibition Percent
MCF7 = assay: NCI-60 one-dose assay; format: cell-based; details: Homo sapiens, MCF7 (Breast Cancer), read-out: Cell Inhibition Percent
MDA-MB 231 = assay: NCI-60 one-dose assay; format: cell-based; details: Homo sapiens, MDA-MB 231 (Breast Cancer), read-out: Cell Inhibition Percent
MDA-MB-435 = assay: NCI-60 one-dose assay; format: cell-based; details: Homo sapiens, MDA-MB-435 (Melanoma), read-out: Cell Inhibition Percent
NCI-H226 = assay: NCI-60 one-dose assay; format: cell-based; details: Homo sapiens, NCI-H226 (Non-Small Cell Lung Cancer), read-out: Cell Inhibition Percent
NCI-H322M = assay: NCI-60 one-dose assay; format: cell-based; details: Homo sapiens, NCI-H322M (Non-Small Cell Lung Cancer), read-out: Cell Inhibition Percent
NCI/ADR-RES = assay: NCI-60 one-dose assay; format: cell-based; details: Homo sapiens, NCI/ADR-RES (ovarian cancer), read-out: Cell Inhibition Percent
OVCAR-3 = assay: NCI-60 one-dose assay; format: cell-based; details: Homo sapiens, OVCAR-3 (ovarian cancer), read-out: Cell Inhibition Percent
OVCAR-8 = assay: NCI-60 one-dose assay; format: cell-based; details: Homo sapiens, OVCAR-8 (ovarian cancer), read-out: Cell Inhibition Percent
RPMI-8226 = assay: NCI-60 one-dose assay; format: cell-based; details: Homo sapiens, RPMI-8226 (Leukemia), read-out: Cell Inhibition Percent
SF-295 = assay: NCI-60 one-dose assay; format: cell-based; details: Homo sapiens, SF-295 (CNS cancer), read-out: Cell Inhibition Percent
SK-MEL-28 = assay: NCI-60 one-dose assay; format: cell-based; details: Homo sapiens, SK-MEL-28 (Melanoma), read-out: Cell Inhibition Percent
SK-MEL-2 = assay: NCI-60 one-dose assay; format: cell-based; details: Homo sapiens, SK-MEL-2 (Melanoma), read-out: Cell Inhibition Percent
SK-OV-3 = assay: NCI-60 one-dose assay; format: cell-based; details: Homo sapiens, SK-OV-3 (ovarian cancer), read-out: Cell Inhibition Percent
SN12C = assay: NCI-60 one-dose assay; format: cell-based; details: Homo sapiens, SN12C (Renal Cancer), read-out: Cell Inhibition Percent
SR = assay: NCI-60 one-dose assay; format: cell-based; details: Homo sapiens, SR (Leukemia), read-out: Cell Inhibition Percent
TK-10 = assay: NCI-60 one-dose assay; format: cell-based; details: Homo sapiens, TK-10 (Renal Cancer), read-out: Cell Inhibition Percent
U251 = assay: NCI-60 one-dose assay; format: cell-based; details: Homo sapiens, U-251, U251 (CNS cancer), read-out: Cell Inhibition Percent
UACC-257 = assay: NCI-60 one-dose assay; format: cell-based; details: Homo sapiens, UACC-257 (Melanoma), read-out: Cell Inhibition Percent
UACC-62 = assay: NCI-60 one-dose assay; format: cell-based; details: Homo sapiens, UACC-62 (Melanoma), read-out: Cell Inhibition Percent
UO-31 = assay: NCI-60 one-dose assay; format: cell-based; details: Homo sapiens, UO-31 (Renal Cancer), read-out: Cell Inhibition Percent
A498 = assay: NCI-60 five-dose assay; format: cell-based, human; details: for GI50 / CC50: Homo sapiens; for GI50: read-out: GI50 Conc. per Cell Line; for CC50: read-out: LC50 (the source's name)
EGFR = EGFR (Homo sapiens, UniProt P00533); assay: EGFR inhibitory assay
EGFR, sequence (P00533 669-1210): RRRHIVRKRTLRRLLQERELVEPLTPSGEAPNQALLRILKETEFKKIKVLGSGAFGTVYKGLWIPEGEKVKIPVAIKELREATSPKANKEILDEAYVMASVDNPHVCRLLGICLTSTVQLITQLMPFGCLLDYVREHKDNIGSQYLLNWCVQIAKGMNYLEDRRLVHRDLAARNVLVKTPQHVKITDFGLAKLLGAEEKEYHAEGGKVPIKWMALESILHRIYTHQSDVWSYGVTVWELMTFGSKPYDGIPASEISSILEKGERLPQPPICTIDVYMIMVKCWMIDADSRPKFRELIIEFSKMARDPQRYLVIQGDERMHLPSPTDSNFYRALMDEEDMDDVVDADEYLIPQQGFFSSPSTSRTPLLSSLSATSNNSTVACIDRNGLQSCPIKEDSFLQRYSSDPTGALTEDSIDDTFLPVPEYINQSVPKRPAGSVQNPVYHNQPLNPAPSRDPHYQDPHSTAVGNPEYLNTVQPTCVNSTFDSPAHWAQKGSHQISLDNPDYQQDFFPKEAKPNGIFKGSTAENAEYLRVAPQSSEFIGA

SMILES	inhibition at 10 µM (BT-549) [%]	inhibition at 10 µM (CAKI-1) [%]	inhibition at 10 µM (COLO 205) [%]	inhibition at 10 µM (DU-145) [%]	inhibition at 10 µM (EKVX) [%]	inhibition at 10 µM (HOP-92) [%]	inhibition at 10 µM (IGROV1) [%]	inhibition at 10 µM (KM12) [%]	inhibition at 10 µM (LOX IMVI) [%]	inhibition at 10 µM (MCF7) [%]	inhibition at 10 µM (MDA-MB 231) [%]	inhibition at 10 µM (MDA-MB-435) [%]	inhibition at 10 µM (NCI-H226) [%]	inhibition at 10 µM (NCI-H322M) [%]	inhibition at 10 µM (NCI/ADR-RES) [%]	inhibition at 10 µM (OVCAR-3) [%]	inhibition at 10 µM (OVCAR-8) [%]	inhibition at 10 µM (RPMI-8226) [%]	inhibition at 10 µM (SF-295) [%]	inhibition at 10 µM (SK-MEL-28) [%]	other results
O=C(NN=Cc1ccc([N+](=O)[O-])cc1)c1ccc2[nH]c(-c3ccc(Cl)cc3)nc2c1 [Compound 4c, N′-(4-Nitrobenzylidene)-2-(4-chlorophenyl)-1H-benzimidazole-5-carbohydrazide]	86	57.2	97.7	58	51	40.3	80.9	87	101	99.3	23.1	52.4	45.2	29.9	22.7	88.7	78.4	89.2	78.3	54.6	inhibition at 10 µM (SK-MEL-2): 33.3%; inhibition at 10 µM (SK-OV-3): 39.5%; inhibition at 10 µM (SN12C): 80.3%; inhibition at 10 µM (SR): 108%; inhibition at 10 µM (TK-10): 10.2%; inhibition at 10 µM (U251): 77.7%; inhibition at 10 µM (UACC-257): 74.9%; inhibition at 10 µM (UACC-62): 56.4%; inhibition at 10 µM (UO-31): 57.4%; TGI (A498; A498 (Renal Cancer), 48 h): 7750 nM; GI50 (A498; A498 (Renal Cancer), 48 h): 2400 nM; CC50 (A498; A498 (Renal Cancer), 48 h): 36400 nM; IC50 (EGFR): 110 ± 10 nM
O=C(NN=Cc1ccc(F)cc1)c1ccc2[nH]c(-c3ccc(Cl)cc3)nc2c1 [Compound 4d, N′-(4-Fluorobenzylidene)-2-(4-chlorophenyl)-1H-benzimidazole-5-carbohydrazide]	0	15.1	58.7	14.6	26.8	15.4	59.8	35.1	66	82.6	36.1	6.12	6.86	22.4	23	29.3	48.7	32.5	68.7	28.1	inhibition at 10 µM (SK-MEL-2): 16.7%; inhibition at 10 µM (SK-OV-3): 1.74%; inhibition at 10 µM (SN12C): 58.8%; inhibition at 10 µM (SR): 79.3%; inhibition at 10 µM (TK-10): 5.63%; inhibition at 10 µM (U251): 98.4%; inhibition at 10 µM (UACC-257): 0%; inhibition at 10 µM (UACC-62): 11.8%; inhibition at 10 µM (UO-31): 24.6%; IC50 (EGFR): 680 ± 50 nM
O=C(NN=Cc1ccc(Cl)cc1)c1ccc2[nH]c(-c3ccc(Cl)cc3)nc2c1 [Compound 4e, N′-(4-Chlorobenzylidene)-2-(4-chlorophenyl)-1H-benzimidazole-5-carbohydrazide]	0	38.8	124	69.5	91.8	71.9	127	129	156	120	90.5	61.2	0.67	72.3	58.8	153	85.8	97.2	149	109	inhibition at 10 µM (SK-MEL-2): 61.1%; inhibition at 10 µM (SK-OV-3): 50.2%; inhibition at 10 µM (SN12C): 137%; inhibition at 10 µM (SR): 124%; inhibition at 10 µM (TK-10): 104%; inhibition at 10 µM (U251): 115%; inhibition at 10 µM (UACC-257): 68.3%; inhibition at 10 µM (UACC-62): 83.2%; inhibition at 10 µM (UO-31): 78.4%; TGI (A498; A498 (Renal Cancer), 48 h): 4940 nM; GI50 (A498; A498 (Renal Cancer), 48 h): 1740 nM; CC50 (A498; A498 (Renal Cancer), 48 h): 19600 nM; IC50 (EGFR): 90 ± 10 nM
COc1ccc(C=NNC(=O)c2ccc3[nH]c(-c4ccc(Cl)cc4)nc3c2)cc1 [Compound 4g, N′-(4-Methoxybenzylidene)-2-(4-chlorophenyl)-1H-benzimidazole-5-carbohydrazide]	43.1	39.5	77.1	20.7	70.6	64	85.4	82.7	99.1	83.3	60.2	31.5	26.2	44.1	26.4	79.9	68.7	40.8	139	87.5	inhibition at 10 µM (SK-MEL-2): 35.9%; inhibition at 10 µM (SK-OV-3): 27.7%; inhibition at 10 µM (SN12C): 93.8%; inhibition at 10 µM (SR): 99.3%; inhibition at 10 µM (TK-10): 60.9%; inhibition at 10 µM (U251): 92%; inhibition at 10 µM (UACC-257): 45.6%; inhibition at 10 µM (UACC-62): 69.1%; inhibition at 10 µM (UO-31): 18.1%; TGI (A498; A498, Renal Cancer): 9870 nM; GI50 (A498; A498, Renal Cancer): 2450 nM; CC50 (A498; A498, Renal Cancer): 54600 nM; IC50 (EGFR): 270 ± 30 nM
COc1cc(/C=N/NC(=O)c2ccc3[nH]c(-c4ccc(Cl)cc4)nc3c2)cc(OC)c1OC [Compound 4h, N′-(3,4,5-Trimethoxybenzylidene)-2-(4-chlorophenyl)-1H-benzimidazole-5 carbohydrazide]	29.3	24	54.3	2.57	4.23	28.3	31.6	38.2	49.4	87.9	0	36	24	12.4	0	38.4	39.5	80.1	56	53.5	inhibition at 10 µM (SK-MEL-2): 16.4%; inhibition at 10 µM (SK-OV-3): 12.2%; inhibition at 10 µM (SN12C): 31.5%; inhibition at 10 µM (SR): 54.3%; inhibition at 10 µM (TK-10): 22.6%; inhibition at 10 µM (U251): 46.8%; inhibition at 10 µM (UACC-257): 45.6%; inhibition at 10 µM (UACC-62): 71.3%; inhibition at 10 µM (UO-31): 11.7%; IC50 (EGFR): 560 ± 50 nM
